Test results as given in patent US11406707B2, “STAT3 phosphorylation during graft-versus-host disease” (H. LEE MOFFITT CANCER CENTER AND RESEARCH INSTITUTE, INC., priority 2014, dated 2022).

What was measured:
S6 ribosomal protein = experiment: Akt-mTOR-S6 signaling in IL-2-stimulated donor T-cells; assay type: cell-based, human; conditions: S3I-201 50 uM, 4 hours, IL-2 pulse
Procedure: T-cells were serum-starved in RPMI treated with DMSO diluent control, rapamycin 100 ng/ml (EMD Millipore, Billerica, Mass. USA), or STAT3 inhibitor S3I-201 50 uM (H. Lee Moffitt Cancer Center, Drug Discovery Core) for 4 hours. For the STAT3 experiments, the T-cells were first DC-allostimulated (DC:T-cell ratio of 1:30) for 3 days to optimize surface expression of IL-6 receptor alpha and STAT3 signaling among healthy volunteers. The T-cells were then cytokine-pulsed for 15 minutes with either IL-2 (R&D Systems) to activate the Akt-mTOR-S6 pathway, or IL-6 to stimulate STAT3 phosphorylation. The cells were then fixed and permeabilized as described, and then stained for CD3, CD4 (STAT3 experiments), phosphorylated STAT3 Y705, and phosphorylated S6.

STAT5 = STAT5 phosphorylation in CD4+ T cells of 5 day allo-MLRs without exogenous cytokine; assay type: cell-based, human
Procedure: No exogenous cytokine was added. DC-allosensitized T cells were harvested on day 5. […] The ratio of CD4^+, pSTAT5^Bright to CD4^+, pSTAT3^+ T cells was calculated by percentage of phosphorylation.

primed T-cells = experiment: Secondary alloMLR (3-day restimulation of primed T-cells) proliferation; assay type: cell-based, human
Source text: Bulk donor T-cells were allostimulated with cytokine-matured, allogeneic moDCs at a DC:T-cell ratio of 1:30 as previously described (Florida Blood Services) [Betts, B C, et al. (2011) Blood 118:5330-9; Betts, B C, et al. […] Betts, B C, et al. (2011) Blood 118:5340-3]. […] Lower doses of each drug were used in these experiments to mimic expected physiologic concentrations [Siddiquee, K, et al. (2007) Proceedings of the National Academy of Sciences of the United States of America 104:7391-6; Zeiser, R, et al. (2008) Blood 111:453-62], and to better detect potential synergistic activity with the combination of rapamycin and S3I-201. After 5 days of culture at […]-cell proliferation was measured by a colorimetric assay per the manufacturer's instructions (CellTiter 96 Aqueous One Solution Cell Proliferation Assay [MTS]; Promega, Madison, Wis. USA) [Betts, B C, et al. (2011) Blood 118:5330-9; Betts, B C, et al. […] Betts, B C, et al. (2011) Blood 118:5340-3]. Absorbance/optical density (OD) was analyzed at 490 nm. Secondary alloMLR: […] Following priming, the T-cells were then rested and re-cultured with fresh first-party moDCs (DC:T-cell ratio of 1:30). […] After 3 days, T-cell proliferation was measured by a colorimetric assay as described (Promega). T-cells alone and PHA-stimulated T-cells served as negative and positive controls, respectively, for both the primary and secondary alloMLRs.

Foxp3 TSDR = experiment: iTreg Foxp3 demethylation assay; assay type: cell-based, human; conditions: S3I-201 50 or 100 μM
Source text: iTreg Foxp3 demethylation assay. […] (2013) J. Immunol. 190, 3180-3188; Miyao, T., et al. (2012) Immunity 36, 262-275]. The degree of Foxp3 TSDR demethylation among iTregs from DMSO-treated allo-MLRs, purified nTregs, and Tconvs served as the controls [[…]., et al. (2013) Blood 122(13):2251-61]. For these experiments, iTregs and nTregs were sorted to select the CD4^+ CD25^+ CD127^- population. PCR products were amplified by using methylation or demethylation specific TSDR forward and reverse primers from bisulphate-treated genomic DNA of sorted natural Tregs. DNA fragments were cloned into a pCR2.1-Topo vector (Life Technologies, Grand Island, N.Y., USA) and verified by DNA sequencing. The following TSDR primers and probes were used for PCR: methylation forward [NT] ID NO:1), reverse [NT] ID NO:2), and hydrolysis probe [NT] (SEQ ID NO:3); and demethylation forward [NT] ID NO:4), reverse [NT] ID NO:5), and hydrolysis probe [NT] ID NO:6). Standards were diluted at concentrations ranging from 2^7 to 2^3 plasmid copies of each methylation or demethylation TSDR. Genomic DNA was isolated by using the DNeasy Blood and Tissue kit (Qiagen, Valencia, Calif., USA) from sorted natural or expanded iTregs. Genomic DNA (200-500 ng) was treated with bisulfite from the EZ DNA Methylation-Gold Kit (Zymo Research, Irvine, Calif., USA). […]

STAT3 = target: T1, STAT3 (Homo sapiens, UniProt P40763); experiment: IL-6-pulsed STAT3 phosphorylation in alloactivated T cells (flow cytometry); assay type: cell-based
T1 construct: endogenous in cells; host or cells: primary human T cells from healthy-donor PBMC, allostimulated by monocyte-derived dendritic cells
Source text: To confirm selective STAT3 inhibition, T cells were first briefly allostimulated by moDCs (DC:T cell ratio 1:30) and then pulsed with the relevant STAT3- or -5-dependent cytokine in the presence or absence of S3I-201. The 3-day exposure to allogenic moDCs allows the responding T cells to increase CD25 expression and capacity to receive IL-2 signaling, while resting or stimulated T cells phosphorylate STAT3 in response to IL-6 [Betts, B. C., et al. (2011) Blood 118, 5330-5339]. DC-allostimulated T cells (1×10^6) were then exposed to S3I-201 (50 or 100 μM) or DMSO for 4 h in serum-free RPMI (Corning Cellgro) to reduce background phosphorylation, followed by a 15 min pulse with IL-6 (4000 IU/ml) or -2 (50 IU/ml). T-cell STAT phosphorylation was determined by surface staining for CD3, followed by fixation (CytoFix; BD Biosciences), permeabilization with cold methanol, and intracellular staining for STAT3 and -5. The phosphorylated STAT3 and -5 geometric MFI ratio was calculated by dividing the geometric MFI of the cytokine-pulsed cells by the geometric MFI of the corresponding fluorochrome isotype.

[1] = S3I-201 50 or 100 μM, 5 day allo-MLR

T1 sequence (P40763 whole entry): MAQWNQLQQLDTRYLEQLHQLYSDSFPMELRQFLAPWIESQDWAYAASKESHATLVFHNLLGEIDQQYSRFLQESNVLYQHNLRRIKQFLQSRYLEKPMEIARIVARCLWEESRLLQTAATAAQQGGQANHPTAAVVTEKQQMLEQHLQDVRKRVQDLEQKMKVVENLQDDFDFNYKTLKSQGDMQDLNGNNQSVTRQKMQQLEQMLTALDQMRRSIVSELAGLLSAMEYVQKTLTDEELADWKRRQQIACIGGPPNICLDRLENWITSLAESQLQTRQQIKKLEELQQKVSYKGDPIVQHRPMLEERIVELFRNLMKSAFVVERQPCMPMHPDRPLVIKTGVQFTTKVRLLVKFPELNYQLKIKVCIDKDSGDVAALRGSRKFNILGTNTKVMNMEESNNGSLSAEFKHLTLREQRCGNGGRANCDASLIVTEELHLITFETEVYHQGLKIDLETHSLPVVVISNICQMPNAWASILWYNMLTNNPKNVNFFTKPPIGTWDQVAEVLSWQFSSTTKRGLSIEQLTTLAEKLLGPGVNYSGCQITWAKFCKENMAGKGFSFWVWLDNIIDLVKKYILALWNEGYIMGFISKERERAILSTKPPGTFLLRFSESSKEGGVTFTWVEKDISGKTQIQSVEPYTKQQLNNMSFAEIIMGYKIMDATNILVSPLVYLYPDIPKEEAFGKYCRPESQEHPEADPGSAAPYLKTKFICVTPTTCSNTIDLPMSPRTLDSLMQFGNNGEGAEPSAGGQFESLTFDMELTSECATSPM

Q: How did the S6 activation (S6 ribosomal protein) turn out when Cc1ccc(S(=O)(=O)OCC(=O)Nc2ccc(C(=O)O)c(O)c2)cc1 [S3I-201] was run?
A: modestly reduced

Q: What about the “CD4+, pSTAT5Bright population” value (STAT5; S3I-201 100 μM) of the same compound?
A: trend in reduced STAT5 phosphorylation

Q: And the “STAT5 activation in response to DC allostimuli” value (STAT5; [1])?
A: preserved

Q: And the “ratio of CD4+, pSTAT5Bright to CD4+, pSTAT3+ T cells” value (STAT5; [1])?
A: robust, dose-dependent polarization

Q: And the “CD4+, pSTAT5Bright population” value (STAT5; S3I-201 vs DMSO, 5 day allo-MLR)?
A: maintained

Q: What about the inhibition at 50 µM (primed T-cells; Homo sapiens, T-cell, S3I-201 50 μM, read-out: inhibition of proliferation in comparison to DMSO) of the same compound?
A: 67%

Q: What about the “proliferation of primed T-cells on rechallenge” value (primed T-cells; S3I-201 50 μM alone) of the same compound?
A: significantly suppressed

Q: And the “iTreg Foxp3 demethylation compared with DMSO” value (Foxp3 TSDR)?
A: significantly enhanced

Q: What about the “IL-6-mediated STAT3 signaling” value (STAT3; S3I-201 50 and 100 μM, 4 h, 15 min IL-6 pulse) of the same compound?
A: inhibited

Q: What about the “concentration giving the highest degree of STAT3 inhibition selectivity” value (STAT3; STAT3 vs STAT5 phosphorylation) of the same compound?
A: 50 µM
